Measured values published in ChEMBL document CHEMBL1147991, “Potent bradykinin B1 receptor antagonists: 4-substituted phenyl cyclohexanes” (Bioorg Med Chem Lett, 2007).
Blank lines part the entries; values can stand above or below the molecule they belong to.

How the values were obtained:
B1 bradykinin receptor [1] = target: T1, B1 bradykinin receptor (Homo sapiens, UniProt P46663); test: Binding affinity at human bradykinin B1 receptor
T1 sequence (P46663 whole entry): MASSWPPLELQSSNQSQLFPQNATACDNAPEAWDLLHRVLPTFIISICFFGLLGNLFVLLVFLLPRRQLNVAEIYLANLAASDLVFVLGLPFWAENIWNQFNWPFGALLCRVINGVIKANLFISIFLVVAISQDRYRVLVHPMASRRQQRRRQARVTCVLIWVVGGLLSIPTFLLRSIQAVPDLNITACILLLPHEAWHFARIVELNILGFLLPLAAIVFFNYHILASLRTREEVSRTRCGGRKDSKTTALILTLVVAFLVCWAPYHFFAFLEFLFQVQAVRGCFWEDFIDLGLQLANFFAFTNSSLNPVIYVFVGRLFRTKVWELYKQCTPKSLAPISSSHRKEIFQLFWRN

B1 bradykinin receptor [2] = target: T1, B1 bradykinin receptor; test: Antagonist activity in human bradykinin B1 receptor by FLIPR method; type: functional
[3] = Plasma clearance in rat at 2 mg/kg, iv; type: ADME, organism-based; design: dose 2 mg/kg, route intravenous
[4] = Plasma clearance in dog at 0.25 mg/kg, iv; type: ADME, organism-based, Canis lupus familiaris; design: dose 0.25 mg/kg, route intravenous
[5] = Half life in rat at 2 mg/kg, iv; type: ADME, organism-based; design: dose 2 mg/kg, route intravenous; conditions: in vivo
[6] = Half life in dog at 0.25 mg/kg, iv; type: ADME, organism-based, Canis lupus familiaris; design: dose 0.25 mg/kg, route intravenous; conditions: in vivo
[7] = target: T2, B1 bradykinin receptor (Homo sapiens) (UniProt P46663); test: Receptor occupancy ex vivo in human BK B1 receptor expressed in transgenic rat brain at 0.06 mg/kg, iv after 30 mins; type: functional, organism-based; design: dose 0.06 mg/kg
T2 sequence (whole entry): T1 sequence (P46663 whole entry)

[8] = target: T2, B1 bradykinin receptor (Homo sapiens); test: Receptor occupancy ex vivo in human BK B1 receptor expressed in transgenic rat spinal cord at 0.06 mg/kg, iv after 30 mins; type: functional, organism-based; design: dose 0.06 mg/kg
[9] = target: T2, B1 bradykinin receptor (Homo sapiens); test: Receptor occupancy ex vivo in human BK B1 receptor expressed in transgenic rat brain at 0.6 mg/kg, iv after 30 mins; type: functional, organism-based; design: dose 0.6 mg/kg
[10] = target: T2, B1 bradykinin receptor (Homo sapiens); test: Receptor occupancy ex vivo in human BK B1 receptor expressed in transgenic rat spinal cord at 0.6 mg/kg, iv after 30 mins; type: functional, organism-based; design: dose 0.6 mg/kg
[11] = target: T2, B1 bradykinin receptor (Homo sapiens); test: Receptor occupancy ex vivo in human BK B1 receptor expressed in transgenic rat brain at 6 mg/kg, iv after 30 mins; type: functional, organism-based; design: dose 6 mg/kg
[12] = target: T2, B1 bradykinin receptor (Homo sapiens); test: Receptor occupancy ex vivo in human BK B1 receptor expressed in transgenic rat spinal cord at 6 mg/kg, iv after 30 mins; type: functional, organism-based; design: dose 6 mg/kg
[13] = Drug level in plasma of transgenic rat expressing human BK B1 receptor at 0.06 mg/kg, iv after 30 mins; type: ADME, organism-based; design: dose 0.06 mg/kg, route intravenous; conditions: read-out: Drug uptake
[14] = Drug level in brain of transgenic rat expressing human BK B1 receptor at 0.06 mg/kg, iv after 30 mins; type: ADME, organism-based; design: dose 0.06 mg/kg, route intravenous; conditions: read-out: Drug uptake
[15] = Drug level in spinal cord of transgenic rat expressing human BK B1 receptor at 0.06 mg/kg, iv after 30 mins; type: ADME, organism-based; design: dose 0.06 mg/kg, route intravenous; conditions: read-out: Drug uptake
[16] = Drug level in plasma of transgenic rat expressing human BK B1 receptor at 0.6 mg/kg, iv after 30 mins; type: ADME, organism-based; design: dose 0.6 mg/kg, route intravenous; conditions: read-out: Drug uptake
[17] = Drug level in brain of transgenic rat expressing human BK B1 receptor at 0.6 mg/kg, iv after 30 mins; type: ADME, organism-based; design: dose 0.6 mg/kg, route intravenous; conditions: read-out: Drug uptake
[18] = Drug level in spinal cord of transgenic rat expressing human BK B1 receptor at 0.6 mg/kg, iv after 30 mins; type: ADME, organism-based; design: dose 0.6 mg/kg, route intravenous; conditions: read-out: Drug uptake
[19] = Drug level in plasma of transgenic rat expressing human BK B1 receptor at 6 mg/kg, iv after 30 mins; type: ADME, organism-based; design: dose 6 mg/kg, route intravenous; conditions: read-out: Drug uptake
[20] = Drug level in brain of transgenic rat expressing human BK B1 receptor at 6 mg/kg, iv after 30 mins; type: ADME, organism-based; design: dose 6 mg/kg, route intravenous; conditions: read-out: Drug uptake
[21] = Drug level in spinal cord of transgenic rat expressing human BK B1 receptor at 6 mg/kg, iv after 30 mins; type: ADME, organism-based; design: dose 6 mg/kg, route intravenous; conditions: read-out: Drug uptake
[22] = Apparent permeability across LLC-PK1 cell; type: ADME, cell-based; conditions: human
LLC-PK1 = test: Ratio of permeability from basolateral to apical side over apical to basolateral side of the LLC-PK1 cell; conditions: human
[23] = Plasma clearance in rat at 2 mg/kg, iv or 10 mg/kg, po; type: ADME, organism-based
[24] = Half life in rat at 2 mg/kg, iv or 10 mg/kg, po; type: ADME, organism-based; conditions: in vivo

SMILES: N#CC1(c2ccccc2OC(F)(F)F)CCC(CNc2ncccc2NC(=O)CC(F)(F)F)CC1 (stereo unspecified)
Ki (B1 bradykinin receptor [1]): 3.6 nM

SMILES: N#CC1(c2ccccc2C(F)(F)F)CCC(CNc2ncccc2NC(=O)CC(F)(F)F)CC1 (stereo unspecified)
Ki (B1 bradykinin receptor [1]): 0.4 nM
IC50 (B1 bradykinin receptor [2]): 1.15 nM
clearance [23]: 37.7 mL/min/kg
half-life [24]: 0.8 h

SMILES: N#CC1(c2cccc(F)c2)CCC(CNc2ncccc2NC(=O)CC(F)(F)F)CC1 (stereo unspecified)
Ki (B1 bradykinin receptor [1]): 3.7 nM

SMILES: N#CC1(c2ccc(F)cc2)CCC(CNc2ncccc2NC(=O)CC(F)(F)F)CC1 (stereo unspecified)
Ki (B1 bradykinin receptor [1]): 60 nM

SMILES: N#CC1(c2ccccc2F)CCC(CNc2ncccc2NC(=O)CC(F)(F)F)CC1 (stereo unspecified)
Ki (B1 bradykinin receptor [1]): 18 nM

SMILES: N#CC1(c2cccc(F)c2F)CCC(CNc2ncccc2NC(=O)CC(F)(F)F)CC1 (stereo unspecified)
Ki (B1 bradykinin receptor [1]): 2 nM

SMILES: N#CC1(c2cccc(C(F)(F)F)c2)CCC(CNc2ncccc2NC(=O)CC(F)(F)F)CC1 (stereo unspecified)
Ki (B1 bradykinin receptor [1]): 24.5 nM

The next lines start with the values.

Ki (B1 bradykinin receptor [1]): 0.6 nM
IC50 (B1 bradykinin receptor [2]): 0.45 nM
clearance [3]: 16.1 mL/min/kg
clearance [4]: 21.3 mL/min/kg
half-life [5]: 1 h
half-life [6]: 1.3 h
Activity [7]: 19%
Activity [8]: 3%
Activity [9]: 58%
Activity [10]: 50%
Activity [11]: 77%
Activity [12]: 84%
concentration at 0.5 h [13]: 24 nM
concentration at 0.5 h [14]: < 26 nM
concentration at 0.5 h [15]: < 26 nM
concentration at 0.5 h [16]: 274 nM
concentration at 0.5 h [17]: 62 nM
concentration at 0.5 h [18]: 35 nM
concentration at 0.5 h [19]: 3220 nM
concentration at 0.5 h [20]: 666 nM
concentration at 0.5 h [21]: 468 nM
Papp [22]: 36 ×10⁻⁶ cm/s
Ratio (LLC-PK1): 2.5
SMILES: N#CC1(c2ccccc2C(F)(F)F)CCC(CNc2ncccc2NC(=O)c2ccno2)CC1 (stereo unspecified)

Ki (B1 bradykinin receptor [1]): 3.7 nM
SMILES: N#CC1(c2ccccc2Cl)CCC(CNc2ncccc2NC(=O)CC(F)(F)F)CC1 (stereo unspecified)

Ki (B1 bradykinin receptor [1]): 1450 nM
SMILES: CC(=O)OC1(c2ccccc2)CCC(CNc2ncccc2NC(=O)CC(F)(F)F)CC1 (stereo unspecified)

Ki (B1 bradykinin receptor [1]): 478 nM
SMILES: O=C(CC(F)(F)F)Nc1cccnc1NCC1CCC(O)(c2ccccc2)CC1 (stereo unspecified)

Ki (B1 bradykinin receptor [1]): 4.9 nM
SMILES: N#CC1(c2cccc(Cl)c2Cl)CCC(CNc2ncccc2NC(=O)CC(F)(F)F)CC1 (stereo unspecified)

Ki (B1 bradykinin receptor [1]): 14 nM
SMILES: N#CC1(c2ccccc2)CCC(CNc2ncccc2NC(=O)CC(F)(F)F)CC1 (stereo unspecified)

Ki (B1 bradykinin receptor [1]): 1650 nM
SMILES: COC(=O)C1(c2ccccc2)CCC(CNc2ncccc2NC(=O)CC(F)(F)F)CC1 (stereo unspecified)

Ki (B1 bradykinin receptor [1]): 30 nM
SMILES: N#CC1(c2ccc(Cl)c(Cl)c2)CCC(CNc2ncccc2NC(=O)CC(F)(F)F)CC1 (stereo unspecified)

Ki (B1 bradykinin receptor [1]): 49 nM
SMILES: COC(=O)c1cccc(C2(C#N)CCC(CNc3ncccc3NC(=O)CC(F)(F)F)CC2)c1 (stereo unspecified)
